The values below come from paper PMC11995724, “Antibiotic target discovery by integrated phenotypic and activity-based profiling of electrophilic fragments” (Cell chemical biology, 2025).

A short description of the data set: in vitro. The settings on record: human, hek293t cells.
Take `N#CC(=Cc1c2ccccc2cc2ccccc12)C(=O)NC1CCCCC1` [8-D14, 3-(anthracen-9-yl)-2-cyano-N-cyclohexylprop-2-enamide]: the viability (in general, a read-out of living cells in per cent, often relative to untreated cells) at 48 h, 25 µM was found to be 94.6%.

Consider `Cc1ccc(NC(=O)C(C#N)=Cc2cccs2)c(C)c1` [8-D15, 2-cyano-N-(2,4-dimethylphenyl)-3-(thiophen-2-yl)prop-2-enamide], for which the viability at 48 h, 25 µM was 101%. The value for `Cc1[nH]c2ccccc2c1C=C(C#N)C(=O)NCc1ccccc1` [8-D16, N-benzyl-2-cyano-3-(2-methyl-1H-indol-3-yl)prop-2-enamide] was 96.6%. Regarding `N#CC(=CC(Cl)=Cc1ccccc1)C(=O)NC1CCCCC1` [8-D17, 4-chloro-2-cyano-N-cyclohexyl-5-phenylpenta-2,4-dienamide], the viability at 48 h, 25 µM is 7.44%. For the compound `N#CC(=Cc1c(F)cccc1F)C(=O)NCCc1ccccc1` [8-D18, 2-cyano-3-(2,6-difluorophenyl)-N-(2-phenylethyl)prop-2-enamide], the viability at 48 h, 25 µM was found to be 47.1%. For the compound `Cc1ccccc1NC(=O)C(C#N)=Cc1cc(C)n(CC(C)C)c1C` [8-D19, 2-cyano-3-[2,5-dimethyl-1-(2-methylpropyl)-1H-pyrrol-3-yl]-N-(2-methylphenyl)prop-2-enamide], the viability at 48 h, 25 µM came out at 118%.

For the compound `N#CC(=Cc1cccs1)C(=O)Nc1cccc2ncccc12` [8-D20, 2-cyano-N-(quinolin-5-yl)-3-(thiophen-2-yl)prop-2-enamide], the viability at 48 h, 25 µM came out at 84.3%. As for `Cc1ccc(C=C(C#N)C(=O)NC(N)=O)o1` [8-D21, {2-cyano-2-[(5-methylfuran-2-yl)methylidene]acetyl}urea], the viability at 48 h, 25 µM turned out to be 101%. On to `Cc1ccsc1C=C(C#N)C(=O)Nc1c(Cl)cccc1Cl` [8-D22, 2-cyano-N-(2,6-dichlorophenyl)-3-(3-methylthiophen-2-yl)prop-2-enamide], for which the viability at 48 h, 25 µM is 78.5%. Regarding `N#CC(=Cc1ccc(OC(F)F)cc1)C(=O)N1CCCc2ccccc21` [8-E03, 3-[4-(difluoromethoxy)phenyl]-2-(1,2,3,4-tetrahydroquinoline-1-carbonyl)prop-2-enenitrile], the viability at 48 h, 25 µM worked out at 64.6%. In the case of `Cc1ccc(C=C(C#N)C(=O)Nc2ccc(C(=O)O)cc2)s1` [8-E04, 4-[2-cyano-3-(5-methylthiophen-2-yl)prop-2-enamido]benzoic acid], the viability at 48 h, 25 µM was 91.5%. Take `CCNC(=O)C(C#N)=Cc1ccc(OC(F)F)cc1` [8-E05, 2-cyano-3-[4-(difluoromethoxy)phenyl]-N-ethylprop-2-enamide]: the viability at 48 h, 25 µM came to 81.4%. For `CN(C)c1ccc(C=C(C#N)C(=O)Nc2nccs2)cc1` [8-E06, 2-cyano-3-[4-(dimethylamino)phenyl]-N-(1,3-thiazol-2-yl)prop-2-enamide], the viability at 48 h, 25 µM amounted to 75.1%. For `CC1CCCCC1NC(=O)C(C#N)=Cc1cccc(O)c1` (centres unmarked) [8-E07, 2-cyano-3-(3-hydroxyphenyl)-N-(2-methylcyclohexyl)prop-2-enamide], the viability at 48 h, 25 µM stood at 45.1%. `Cc1n[nH]c(C)c1C=C(C#N)C(=O)Nc1ccc(SC(F)F)cc1` [8-E08, 2-cyano-N-{4-[(difluoromethyl)sulfanyl]phenyl}-3-(3,5-dimethyl-1H-pyrazol-4-yl)prop-2-enamide]: the viability at 48 h, 25 µM amounted to 78.2%.

`C=CCNC(=O)C(C#N)=Cc1ccccc1[N+](=O)[O-]` [8-E09, 2-cyano-3-(2-nitrophenyl)-N-(prop-2-en-1-yl)prop-2-enamide]: the viability at 48 h, 25 µM was 109%. Turning to `N#CC(=Cc1cc(F)ccc1F)C(=O)Nc1ccc(F)cc1` [8-E10, 2-cyano-3-(2,5-difluorophenyl)-N-(4-fluorophenyl)prop-2-enamide], the viability at 48 h, 25 µM was 87.5%. As to `COc1ccccc1NC(=O)C(C#N)=Cc1ccccc1F` [8-E11, 2-cyano-3-(2-fluorophenyl)-N-(2-methoxyphenyl)prop-2-enamide], the viability at 48 h, 25 µM was determined as 67.4%.

As for `Cc1ccc(C=C(C#N)C(=O)NC2CCCC2)cc1C` [8-E12, 2-cyano-N-cyclopentyl-3-(3,4-dimethylphenyl)prop-2-enamide], the viability at 48 h, 25 µM came out at 54.9%.

Turning to `Cc1cc(C)c(NC(=O)C(C#N)=Cc2ccccc2C)c(C)c1` [8-E13, 2-cyano-3-(2-methylphenyl)-N-(2,4,6-trimethylphenyl)prop-2-enamide], the viability at 48 h, 25 µM came out at 37.8%. Regarding `Cc1cc(C=C(C#N)C(=O)Nc2ccccc2)c(C)n1C1CC1` [8-E14, 2-cyano-3-(1-cyclopropyl-2,5-dimethyl-1H-pyrrol-3-yl)-N-phenylprop-2-enamide], the viability at 48 h, 25 µM was 91.7%. In the case of `N#CC(=Cc1ccccc1)C(=O)Nc1ccc(N2CCCCC2)cc1` [8-E15, 2-cyano-3-phenyl-N-[4-(piperidin-1-yl)phenyl]prop-2-enamide], the viability at 48 h, 25 µM is 64.7%.

In the case of `Cc1ccc(C=C(C#N)C(=O)Nc2ccccc2C(F)(F)F)cc1` [8-E16, 2-cyano-3-(4-methylphenyl)-N-[2-(trifluoromethyl)phenyl]prop-2-enamide], the viability at 48 h, 25 µM stood at 96.3%.

For the compound `Cc1ccc(C=C(C#N)C(=O)N2CCCC2)cc1` [8-E17, 3-(4-methylphenyl)-2-(pyrrolidine-1-carbonyl)prop-2-enenitrile], the viability at 48 h, 25 µM is 75.4%. Then `COc1ccccc1NC(=O)C(C#N)=Cc1ccc(F)cc1` [8-E18, 2-cyano-3-(4-fluorophenyl)-N-(2-methoxyphenyl)prop-2-enamide], with 81%; and `Cc1cc(C)c(NC(=O)C(C#N)=Cc2ccccc2)c(C)c1` [8-E19, 2-cyano-3-phenyl-N-(2,4,6-trimethylphenyl)prop-2-enamide], with 29.4%. On to `N#CC(=CNc1ccc(F)cc1)C(=O)NCc1ccccc1` [8-E20, N-benzyl-2-cyano-3-[(4-fluorophenyl)amino]prop-2-enamide], for which the viability at 48 h, 25 µM was 98.3%. The value for `C=CCNC(=O)C(C#N)=Cc1ccc(OC)c(O)c1` [8-E21, 2-cyano-3-(3-hydroxy-4-methoxyphenyl)-N-(prop-2-en-1-yl)prop-2-enamide] was 75.7%; that for `Cc1c(C=C(C#N)C(=O)NCC2(c3ccccc3)CC2)cc(C#N)n1C` [8-E22, 2-cyano-3-(5-cyano-1,2-dimethyl-1H-pyrrol-3-yl)-N-[(1-phenylcyclopropyl)methyl]prop-2-enamide] was 79.4%; that for `N#CC(=Cc1ccccc1Cl)C(=O)Nc1ccc2c(c1)OCCO2` [8-F03, 3-(2-chlorophenyl)-2-cyano-N-(2,3-dihydro-1,4-benzodioxin-6-yl)prop-2-enamide] was 94.9%. For `N#CC(=Cc1cc(C#N)cs1)C(=O)NC(N)=O` [8-F04, {2-cyano-2-[(4-cyanothiophen-2-yl)methylidene]acetyl}urea], the viability at 48 h, 25 µM is 85.8%. For the compound `N#CC(=Cc1ccccc1OCc1ccccc1)C(=O)NC(N)=O` [8-F05, (2-{[2-(benzyloxy)phenyl]methylidene}-2-cyanoacetyl)urea], the viability at 48 h, 25 µM amounted to 84.9%. As for `COc1cccc(NC(=O)C(C#N)=Cc2cccc(Cl)c2Cl)c1` [8-F06, 2-cyano-3-(2,3-dichlorophenyl)-N-(3-methoxyphenyl)prop-2-enamide], the viability at 48 h, 25 µM stood at 29.8%.

Consider `N#CC(=Cc1ccc(O)c(O)c1)C(=O)Nc1cccc(Cl)c1Cl` [8-F07, 2-cyano-N-(2,3-dichlorophenyl)-3-(3,4-dihydroxyphenyl)prop-2-enamide], for which the viability at 48 h, 25 µM came to 77.6%. On to `CC(=Cc1ccccc1)C=C(C#N)C(=O)Nc1nccs1` [8-F08, 2-cyano-4-methyl-5-phenyl-N-(1,3-thiazol-2-yl)penta-2,4-dienamide], for which the viability at 48 h, 25 µM was 84.2%. For `COc1ccc(NC(=O)C(C#N)=Cc2cccc(O)c2)cc1OC` [8-F09, 2-cyano-N-(3,4-dimethoxyphenyl)-3-(3-hydroxyphenyl)prop-2-enamide], the viability at 48 h, 25 µM turned out to be 86.1%.

With `N#CC(=Cc1cccs1)C(=O)Nc1ccc(F)cc1` [8-F10, 2-cyano-N-(4-fluorophenyl)-3-(thiophen-2-yl)prop-2-enamide], the viability at 48 h, 25 µM was found to be 102%. In the case of `Cc1ccc(NC(=O)C(C#N)=Cc2cccc(F)c2)cc1` [8-F11, 2-cyano-3-(3-fluorophenyl)-N-(4-methylphenyl)prop-2-enamide], the viability at 48 h, 25 µM was 85.7%. Regarding `CC1CCCCC1NC(=O)C(C#N)=CC=Cc1ccccc1[N+](=O)[O-]` (centres unmarked) [8-F12, 2-cyano-N-(2-methylcyclohexyl)-5-(2-nitrophenyl)penta-2,4-dienamide], the viability at 48 h, 25 µM came to 36%. Then `COc1ccc(C=C(C#N)C(=O)Nc2cccc3c2C(=O)NC3=O)cc1` [8-F13, 2-cyano-N-(1,3-dioxo-2,3-dihydro-1H-isoindol-4-yl)-3-(4-methoxyphenyl)prop-2-enamide], with 119%. For the compound `N#CC(=Cc1ccc(OC(F)F)cc1)C(=O)Nc1nccs1` [8-F14, 2-cyano-3-[4-(difluoromethoxy)phenyl]-N-(1,3-thiazol-2-yl)prop-2-enamide], the viability at 48 h, 25 µM is 113%. For the compound `COc1cc(C=C(C#N)C(=O)NC(C)C)cc(OC)c1` [8-F15, 2-cyano-3-(3,5-dimethoxyphenyl)-N-(propan-2-yl)prop-2-enamide], the viability at 48 h, 25 µM stood at 82.4%.

Turning to `N#CC(=Cc1cccc([N+](=O)[O-])c1)C(=O)NCc1ccc(Cl)cc1` [8-F16, N-[(4-chlorophenyl)methyl]-2-cyano-3-(3-nitrophenyl)prop-2-enamide], the viability at 48 h, 25 µM stood at 0.958%.

`Cn1ccc(NC(=O)C(C#N)=Cc2ncccc2C(F)(F)F)n1` [8-F17, 2-cyano-N-(1-methyl-1H-pyrazol-3-yl)-3-[3-(trifluoromethyl)pyridin-2-yl]prop-2-enamide]: the viability at 48 h, 25 µM is 95.2%. Turning to `Cc1cccc(C=C(C#N)C(=O)NC(C)c2ccccc2)c1` (centres unmarked) [8-F18, 2-cyano-3-(3-methylphenyl)-N-(1-phenylethyl)prop-2-enamide], the viability at 48 h, 25 µM was found to be 36.3%.

Turning to `N#CC(=CC=Cc1ccccc1[N+](=O)[O-])C(N)=O` [8-F19, 2-cyano-5-(2-nitrophenyl)penta-2,4-dienamide], the viability at 48 h, 25 µM worked out at 1.55%. In the case of `N#CC(=Cc1ccc(-c2ccccc2Cl)o1)C(=O)N1CCCCC1` [8-F20, 3-[5-(2-chlorophenyl)furan-2-yl]-2-(piperidine-1-carbonyl)prop-2-enenitrile], the viability at 48 h, 25 µM came out at 66.6%.
